Like-named read-outs stand apart in the source and are kept apart here.
Legend:
OVCAR-3 (ovarian) = OVCAR-3 (ovarian) xenograft model; type: in vivo; conditions: NSG mouse, (4) cycles
Source text: (§1) The efficacy of Aza-T-dCyd was confirmed by tumor growth curves after administration of Aza-T-dCyd in various solid cancer xenograft models. […]

DNMT3B = DNMT3B (Homo sapiens, UniProt Q9UBC3); assay: Western blotting of Molm13 xenograft cancer tissues, DNMT3B; type: in vivo; design: cancer tissues were harvested and analyzed by Western blotting; from tissue; host or cells: Molm13 leukemia xenograft cancer tissue
DNMT3A = DNMT3A expression in HL-60 xenograft tumor samples; type: in vivo, mice; conditions: 2 mg/kg NTX-301 intraperitoneally, day 11
Method: (§2) As the efficacy of DNMT1 inhibitors correlates with their selective profile for targeting DNMT1 and the de novo methyltransferases DNMT3A and DNMT3B, we confirmed the expression of DNMT1, DNMT3A, and DNMT3B in the Aza-T-dCyd and Decitabine treated groups in this xenograft model (FIG. 27).
(§3) In the HL-60 xenograft mice model, 2 mg/kg of NTX-301 (Aza-T-dCyd) or 0.75 mg/kg of Decitabine were administered intraperitoneally, and then tumor samples were collected on day 11 to determine the expression of DNMT1, DNMT3A, and DNMT3B. […] On the other hand, the expression levels of DNMT3A and DNMT3B were different in the Aza-T-dCyd and Decitabine treatment groups.

[1] = cited from earlier work
BL0382PD PDX (bladder) = type: in vivo, Mouse; conditions: NSG mouse, 1 mg/kg, (4) cycles
Source text: as §1

[2] = Pharmacokinetic evaluation in Rat; type: in vivo; conditions: for AUC(0-inf) / AUC(0-t) / Cmax / half-life / Tmax: in vivo, Rat; for half-life: read-out: T½ (converted)
Method: Aza-T-dCyd was administered orally and intravenously at various concentrations to Mice, Rats and Dogs to determine the PK profile.

DNMT1 = DNMT1 (Homo sapiens, UniProt P26358); assay: DNMT1 expression in HL-60 xenograft tumor samples; type: in vivo, mice; design: tumor samples were collected on day 11 to determine the expression of DNMT1, DNMT3A, and DNMT3B; from tissue; host or cells: HL-60 xenograft tumour samples (mouse host); conditions: 2 mg/kg NTX-301 or 0.75 mg/kg Decitabine intraperitoneally, day 11
Method: as §2, §3

A431 = assay: drug activity profiling cytotoxicity; type: cell-based; conditions: Homo sapiens, A-431; A431 cell line, Skin (Head and Neck); read-out: Aza-T-dCyd IC50
Method: (§4) To obtain a biomarker for Aza-T-dCyd, drug activity profiling analysis was performed to evaluate the cytotoxicity of 200 cell lines.
(§5) The drug responsiveness analysis of Aza-T-dCyd through drug activity profiling and genomic analysis of 200 cell lines confirmed the potent efficacy of Aza-T-dCyd in various solid tumors (Table 2).

U-87 MG = assay: drug activity profiling cytotoxicity; type: cell-based; conditions: Homo sapiens; U-87 MG cell line, CNS (Glioma); read-out: Aza-T-dCyd IC50
Method: as §4, §5

CFPAC-1 = assay: drug activity profiling cytotoxicity; type: cell-based; conditions: Homo sapiens; CFPAC-1 cell line, Pancreas; read-out: Aza-T-dCyd IC50
Method: as §4, §5

OE33 = assay: drug activity profiling cytotoxicity; type: cell-based; conditions: Homo sapiens; OE33 cell line, Head and Neck; read-out: Aza-T-dCyd IC50
Method: as §4, §5

SK-N-AS = assay: drug activity profiling cytotoxicity; type: cell-based; conditions: Homo sapiens; SK-N-AS cell line, CNS (Neuroblastoma); read-out: Aza-T-dCyd IC50
Method: as §4, §5

NCIH446 = assay: drug activity profiling cytotoxicity; type: cell-based; conditions: Homo sapiens, NCI-H446; NCIH446 cell line, Lung (SCLC); read-out: Aza-T-dCyd IC50
Method: as §4, §5

CML-T1 = assay: drug activity profiling cytotoxicity; type: cell-based; conditions: CML-T1 cell line, read-out: Aza-T-dCyd IC50
Method: as §4, §5

MHH-PREB-1 = assay: drug activity profiling cytotoxicity; type: cell-based; conditions: Homo sapiens; MHH-PREB-1 cell line, B-cell lymphoma; read-out: Aza-T-dCyd IC50
Method: as §4, §5

Hs 821.T = assay: drug activity profiling cytotoxicity; type: cell-based; conditions: Hs 821.T cell line, Sarcoma; read-out: Aza-T-dCyd IC50
Method: as §4, §5

KHOS-240S = assay: drug activity profiling cytotoxicity; type: cell-based; conditions: KHOS-240S cell line, Bone (Osteosarcoma); read-out: Aza-T-dCyd IC50
Method: as §4, §5

[3] = test system: ALL-Patient Derived Xenografts; assay: ALL-Patient Derived Xenografts (PDX); type: in vivo; conditions: doses tolerated up to 1.5 mg/kg (0.5, 1, 1.5, 2 mg/kg tested)
Method: To determine the efficacy of Aza-T-dCyd in another indication, T-ALL, we evaluated the efficacy of Aza-T-dCyd in a patient-derived ALL animal model.
Aza-T-dCyd was administered at doses of 0.5, 1, 1.5, and 2 mg/kg in ALL-Patient Derived Xenografts (PDX), with T-dCyd (DNMT1 inhibitor) used as a comparative control.

Sequence of DNMT1 (P26358 whole entry): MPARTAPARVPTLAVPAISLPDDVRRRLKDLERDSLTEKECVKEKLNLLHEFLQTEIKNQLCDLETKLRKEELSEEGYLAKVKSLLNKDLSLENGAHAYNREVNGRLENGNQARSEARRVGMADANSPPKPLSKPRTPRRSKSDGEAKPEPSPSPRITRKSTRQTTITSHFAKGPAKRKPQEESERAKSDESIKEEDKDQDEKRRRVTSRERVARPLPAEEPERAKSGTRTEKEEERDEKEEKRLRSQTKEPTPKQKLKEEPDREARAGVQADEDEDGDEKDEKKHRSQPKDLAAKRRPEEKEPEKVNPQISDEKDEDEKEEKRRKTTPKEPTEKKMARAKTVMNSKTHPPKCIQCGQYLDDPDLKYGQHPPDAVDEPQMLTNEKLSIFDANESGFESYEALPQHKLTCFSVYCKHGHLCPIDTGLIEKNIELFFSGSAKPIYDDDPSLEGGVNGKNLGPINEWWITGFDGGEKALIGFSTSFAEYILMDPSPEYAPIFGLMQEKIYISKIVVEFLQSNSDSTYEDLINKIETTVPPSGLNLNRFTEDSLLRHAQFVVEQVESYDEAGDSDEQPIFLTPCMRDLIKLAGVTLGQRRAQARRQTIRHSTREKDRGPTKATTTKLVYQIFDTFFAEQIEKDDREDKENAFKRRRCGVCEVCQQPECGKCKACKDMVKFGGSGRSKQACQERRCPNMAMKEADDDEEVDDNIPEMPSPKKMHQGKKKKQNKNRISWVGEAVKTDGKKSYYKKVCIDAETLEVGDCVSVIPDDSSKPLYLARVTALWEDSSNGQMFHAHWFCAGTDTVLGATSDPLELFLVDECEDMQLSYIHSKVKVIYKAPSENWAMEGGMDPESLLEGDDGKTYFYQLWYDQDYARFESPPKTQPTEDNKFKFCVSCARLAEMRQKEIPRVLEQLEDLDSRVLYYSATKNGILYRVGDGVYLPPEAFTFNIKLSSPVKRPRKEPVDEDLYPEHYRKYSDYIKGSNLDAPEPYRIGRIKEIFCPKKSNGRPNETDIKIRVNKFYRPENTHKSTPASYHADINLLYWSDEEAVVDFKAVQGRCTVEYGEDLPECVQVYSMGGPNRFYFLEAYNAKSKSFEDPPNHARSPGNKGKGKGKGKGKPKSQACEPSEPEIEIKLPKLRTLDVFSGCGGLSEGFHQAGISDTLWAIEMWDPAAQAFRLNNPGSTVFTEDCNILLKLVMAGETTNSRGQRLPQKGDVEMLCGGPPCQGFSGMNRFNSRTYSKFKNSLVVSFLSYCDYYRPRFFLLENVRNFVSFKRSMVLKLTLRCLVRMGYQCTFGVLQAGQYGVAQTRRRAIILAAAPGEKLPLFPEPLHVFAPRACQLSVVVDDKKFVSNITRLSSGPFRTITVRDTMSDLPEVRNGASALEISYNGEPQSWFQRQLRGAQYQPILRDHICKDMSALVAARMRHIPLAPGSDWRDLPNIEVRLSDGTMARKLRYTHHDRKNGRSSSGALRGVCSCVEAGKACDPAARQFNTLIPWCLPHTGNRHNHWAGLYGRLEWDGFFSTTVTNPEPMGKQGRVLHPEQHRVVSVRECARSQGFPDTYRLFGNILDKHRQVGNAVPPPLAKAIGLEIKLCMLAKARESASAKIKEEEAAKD

Nc1ncn([C@H]2CC(O)[C@@H](CO)S2)c(=O)n1 (some centres unmarked) [Aza-T-dCyd, 4′-thio-5-aza-2′-deoxycytidine]
Optimal T/C (%) (test/control) (OVCAR-3 (ovarian); 0.5 mg/kg): 40% | Optimal T/C (%) (test/control) (OVCAR-3 (ovarian); 1 mg/kg): 4% | DNMT3B protein of approximately 90 kDa (DNMT3B; Molm13 AML xenograft, above 0.4 mg/kg): clear reduction of DNMT3B protein | DNMT3B in cancer tissues (Western blotting) (DNMT3B; Molm13 xenograft, after administration): strongly inhibited DNMT1 and DNMT3B in a concentration-dependent manner | DNMT3A expression level in tumor samples (DNMT3A): not affected | AUC value ([1]; 16 mg/day dose, NCI's Phase 1 trial): about 50 ng*h/mL | side effects ([1]; Phase 1a, solid tumors, dose approximately twice that of conventional decitabine): no significant side effects were observed | disease control rate ([1]; clinical trials, 32 mg/day dose): high disease control rate | MTD dose in Phase 1 ([1]; humans): 32 mg | Optimal T/C (%) (test/control) (BL0382PD PDX (bladder)): 23% | AUC(0-inf) ([2]; IV 1 mg/kg): 1.9 µg·h/mL | AUC(0-t) ([2]; IV 1 mg/kg): 1.33 µg·h/mL | Cmax ([2]; IV 1 mg/kg): 0.444 µg/mL | half-life ([2]; IV 1 mg/kg): 5.01 h | AUC(0-inf) ([2]; PO 0.5 mg/kg): 0.303 µg·h/mL | AUC(0-t) ([2]; PO 0.5 mg/kg): 0.19 µg·h/mL | Cmax ([2]; PO 0.5 mg/kg): 0.0338 µg/mL | Tmax ([2]; PO 0.5 mg/kg): 2 h | half-life ([2]; PO 0.5 mg/kg): 5.24 h | AUC(0-inf) ([2]; PO 1 mg/kg): 0.79 µg·h/mL | AUC(0-t) ([2]; PO 1 mg/kg): 0.459 µg·h/mL | Cmax ([2]; PO 1 mg/kg): 0.0819 µg/mL | Tmax ([2]; PO 1 mg/kg): 1.17 h | half-life ([2]; PO 1 mg/kg): 6.3 h | AUC(0-inf) ([2]; PO 3 mg/kg): 2.8 µg·h/mL | AUC(0-t) ([2]; PO 3 mg/kg): 2.78 µg·h/mL | Cmax ([2]; PO 3 mg/kg): 0.488 µg/mL | Tmax ([2]; PO 3 mg/kg): 0.83 h | half-life ([2]; PO 3 mg/kg): 3.45 h | AUC(0-inf) ([2]; PO 10 mg/kg): 9.23 µg·h/mL | AUC(0-t) ([2]; PO 10 mg/kg): 9.2 µg·h/mL | Cmax ([2]; PO 10 mg/kg): 1.32 µg/mL | Tmax ([2]; PO 10 mg/kg): 2 h | half-life ([2]; PO 10 mg/kg): 2.95 h | oral bioavailability ([2]; rats): orally bioavailable | DNMT1 expression in tumor samples (DNMT1): significantly reduced | IC50 (A431): 0.256 µM | IC50 (U-87 MG): 1.64 µM | IC50 (CFPAC-1): 1.75 µM | IC50 (OE33): 0.161 µM | IC50 (SK-N-AS): 1.17 µM | IC50 (NCIH446): 3.04 µM | IC50 (CML-T1): 0.109 µM | IC50 (MHH-PREB-1): 0.0389 µM | IC50 (Hs 821.T): > 10 µM | IC50 (KHOS-240S): 0.254 µM | efficacy in pediatric ALL PDX [3]: highly effective

Reference: US12708630B2, “Combined therapy of 4′-thio-5-aza-2′-deoxycytidine and Venetoclax” (PINOTBIO, INC., priority 2021, dated 2026)
